Assay results as given in ChEMBL document CHEMBL5131384, “Design, synthesis, and biological evaluation of indole-based hydroxamic acid derivatives as histone deacetylase inhibitors” (Eur J Med Chem, 2022).
Calls of active or inactive are those of the source. The calls are words filed in the database; no cut-off is given here.

Key:
[1] = target: Histone deacetylase 1 (Homo sapiens, UniProt Q13547); assay: Inhibition of HDAC1 (unknown origin) using Boc-Lys(Ac)-AMC as substrate incubated for 60 mins by fluorescence plate reader assay
[2] = target: T1, Protein deacetylase HDAC6 (Homo sapiens, UniProt Q9UBN7); assay: Inhibition of HDAC6 (unknown origin) using Boc-Lys(Ac)-AMC as substrate incubated for 60 mins by fluorescence plate reader assay
T1 sequence (Q9UBN7 whole entry): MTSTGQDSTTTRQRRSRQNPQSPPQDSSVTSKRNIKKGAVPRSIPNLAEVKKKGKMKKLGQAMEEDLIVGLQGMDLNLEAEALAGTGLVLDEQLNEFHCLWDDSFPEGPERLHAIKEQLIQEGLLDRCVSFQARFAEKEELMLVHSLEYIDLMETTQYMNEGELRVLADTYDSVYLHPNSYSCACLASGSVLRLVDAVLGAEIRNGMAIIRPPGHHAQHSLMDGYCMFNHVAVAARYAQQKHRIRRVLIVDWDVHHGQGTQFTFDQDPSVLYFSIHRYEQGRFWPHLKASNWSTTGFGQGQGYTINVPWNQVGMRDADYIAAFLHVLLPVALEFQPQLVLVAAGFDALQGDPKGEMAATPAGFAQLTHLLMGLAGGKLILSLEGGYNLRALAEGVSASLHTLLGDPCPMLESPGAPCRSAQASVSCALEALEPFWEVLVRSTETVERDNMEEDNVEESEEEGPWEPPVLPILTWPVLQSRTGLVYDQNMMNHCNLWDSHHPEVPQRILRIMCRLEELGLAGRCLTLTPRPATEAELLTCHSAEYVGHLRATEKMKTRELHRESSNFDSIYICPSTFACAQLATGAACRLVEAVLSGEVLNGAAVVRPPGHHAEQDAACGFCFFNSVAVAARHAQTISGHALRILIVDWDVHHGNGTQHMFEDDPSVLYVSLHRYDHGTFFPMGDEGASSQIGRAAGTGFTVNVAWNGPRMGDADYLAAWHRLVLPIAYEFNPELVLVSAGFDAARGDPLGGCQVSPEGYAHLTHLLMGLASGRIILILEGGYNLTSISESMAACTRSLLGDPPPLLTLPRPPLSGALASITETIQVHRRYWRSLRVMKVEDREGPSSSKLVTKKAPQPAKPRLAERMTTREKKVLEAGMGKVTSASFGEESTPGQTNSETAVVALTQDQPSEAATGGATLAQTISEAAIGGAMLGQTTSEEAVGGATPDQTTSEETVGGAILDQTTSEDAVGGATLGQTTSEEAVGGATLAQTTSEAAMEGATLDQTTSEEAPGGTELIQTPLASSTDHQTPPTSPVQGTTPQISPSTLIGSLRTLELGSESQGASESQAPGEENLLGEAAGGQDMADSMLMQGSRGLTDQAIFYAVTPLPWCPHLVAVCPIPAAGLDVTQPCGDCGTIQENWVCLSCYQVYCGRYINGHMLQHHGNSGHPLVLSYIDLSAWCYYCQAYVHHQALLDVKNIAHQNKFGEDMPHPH

[3] = test system: A549; assay: Antiproliferative activity against human A549 cells assessed as reduction in cell viability incubated for 72 hrs by WST-8 assay; assay type: functional, cell-based; settings: A549, 72 h
[4] = test system: MDA-MB-231; assay: Antiproliferative activity against human MDA-MB-231 cells assessed as reduction in cell viability incubated for 72 hrs by WST-8 assay; assay type: functional, cell-based; settings: MDA-MB-231, 72 h
[5] = test system: SGC-7901; assay: Antiproliferative activity against human SGC-7901 cells assessed as reduction in cell viability incubated for 72 hrs by WST-8 assay; assay type: functional, cell-based; settings: SGC-7901, 72 h
[6] = test system: HCT-116; assay: Antiproliferative activity against human HCT-116 cells assessed as reduction in cell viability incubated for 72 hrs by WST-8 assay; assay type: functional, cell-based; settings: HCT-116, 72 h
[7] = test system: HL-60; assay: Antiproliferative activity against human HL-60 cells assessed as reduction in cell viability incubated for 72 hrs by WST-8 assay; assay type: functional, cell-based; settings: HL-60, 72 h
[8] = test system: HCT-116; assay: Induction of apoptosis in human HCT-116 cells assessed as early apoptotic cells at 1 uM incubated for 48 hrs by Annexin V-FITC/propidium iodide staining-based flow cytometric analysis (reference value: 1.73 %); assay type: functional
[9] = test system: HCT-116; assay: Induction of apoptosis in human HCT-116 cells assessed as late apoptotic cells at 1 uM incubated for 48 hrs by Annexin V-FITC/propidium iodide staining-based flow cytometric analysis (reference value: 5.80 %); assay type: functional
[10] = test system: HCT-116; assay: Induction of cell cycle arrest in human HCT-116 cells assessed as increase in accumulation of cells at G2/M phase at 1 uM incubated for 24 hrs by flow cytometry analysis; assay type: functional, cell-based
[11] = test system: HCT-116; assay: Induction of cell cycle arrest in human HCT-116 cells assessed as decrease in accumulation of cells at S phase at 1 uM incubated for 24 hrs by flow cytometry analysis; assay type: functional, cell-based
[12] = target: T2, Histone deacetylase (Homo sapiens) (UniProt Q13547+O15379+Q9UBN7+Q92769+Q9UQL6+Q8WUI4+Q9BY41+Q96DB2+P56524+Q9UKV0+Q969S8); assay: Inhibition of HDAC in human HCT-116 cells assessed as upregulation of acetylated H3 level at 0.1 to 1 uM incubated for 48 hrs by Western blot analysis; assay type: cell-based; settings: dose 0.1-1 µM, DDE = dose-dependent effect
[13] = target: T2, Histone deacetylase (Homo sapiens); assay: Inhibition of HDAC in human HCT-116 cells assessed as upregulation of acetylated alpha-tubulin level 0.1 to 1 uM incubated for 48 hrs by Western blot analysis; assay type: cell-based; settings: dose 0.1-1 µM, DDE = dose-dependent effect
[14] = test system: HCT-116; assay: Induction of apoptosis in human HCT-116 cells assessed as early apoptotic cells at 0.1 uM incubated for 48 hrs by Annexin V-FITC/propidium iodide staining-based flow cytometric analysis (reference value: 1.73 %); assay type: functional
[15] = test system: HCT-116; assay: Induction of apoptosis in human HCT-116 cells assessed as late apoptotic cells at 0.1 uM incubated for 48 hrs by Annexin V-FITC/propidium iodide staining-based flow cytometric analysis (reference value: 5.80 %); assay type: functional
[16] = test system: HCT-116; assay: Induction of apoptosis in human HCT-116 cells at 0.1 to 1 uM incubated for 48 hrs by Annexin V-FITC/propidium iodide staining-based flow cytometric analysis; assay type: functional, cell-based; settings: dose 0.1-1 µM, DDE = dose-dependent effect
[17] = test system: HCT-116; assay: Induction of apoptosis in human HCT-116 cells assessed as increase in cleaved PARP level at 0.1 to 1 uM incubated for 48 hrs by Western blot analysis; assay type: functional, cell-based; settings: dose 0.1-1 µM
[18] = test system: HCT-116; assay: Induction of cell cycle arrest in human HCT-116 cells assessed as accumulation of cells at G2/M phase at 0.1 to 1 uM incubated for 24 hrs by flow cytometry analysis; assay type: functional, cell-based; settings: dose 0.1-1 µM, DDE = dose-dependent effect
[19] = test system: HCT-116; assay: Inhibition of colony formation in human HCT-116 cells at 3 to 10 nM drug medium changed every three days for 2 weeks by crystal violet staining based analysis; assay type: functional, cell-based; settings: dose 3-10 nM, DDE = dose-dependent effect
[20] = test system: HCT-116; assay: Inhibition of colony formation in human HCT-116 cells assessed as reduction in number of colonies at 3 nM drug medium changed every three days for 2 weeks by crystal violet staining based analysis; assay type: functional, cell-based
[21] = test system: HCT-116; assay: Inhibition of colony formation in human HCT-116 cells assessed as reduction in size of colonies at 3 nM drug medium changed every three days for 2 weeks by crystal violet staining based analysis; assay type: functional, cell-based
[22] = test system: HCT-116; assay: Inhibition of colony formation in human HCT-116 cells assessed as blockage of anchor growth at 10 nM drug medium changed every three days for 2 weeks by crystal violet staining based analysis; assay type: functional; settings: HCT-116, 336 h
[23] = test system: HCT-116; assay: Antitumor activity against human HCT-116 cells xenografted in BALB/c mouse assessed as inhibition of tumor growth at 20 mg/kg, ip adminstered once daily measured every three days for 15 days by vernier caliper method relative to control; assay type: functional; set-up: scale not given: the % may be the effect or the level left; settings: time 15 day
[24] = test system: HCT-116; assay: Antitumor activity against human HCT-116 cells xenografted in BALB/c mouse assessed as inhibition of tumor growth at 40 mg/kg, ip adminstered once daily measured every three days for 15 days by vernier caliper method relative to control; assay type: functional; set-up: scale not given: the % may be the effect or the level left; settings: time 15 day
[25] = Toxicity in BALB/c mouse assessed as body weight loss at 20 to 40 mg/kg, ip adminstered once daily for 15 days; assay type: organism-based; settings: in vivo, 360 h, dose 20-40 mg/kg, time 15 day
[26] = Toxicity in BALB/c mouse assessed as drug tolerability at 20 to 40 mg/kg, ip adminstered once daily for 15 days; assay type: organism-based; settings: in vivo, 360 h, dose 20-40 mg/kg, time 15 day
[27] = test system: Mus musculus; assay: In vivo inhibition of HDAC in BALB/c mouse xenografted with HCT-116 cells assessed as upregulation of acetylated H3 expression at 20 to 40 mg/kg, ip for 15 days by Western blot analysis; assay type: functional, organism-based; settings: dose 20-40 mg/kg, time 15.0 day, DDE = dose-dependent effect
[28] = test system: Mus musculus; assay: In vivo inhibition of HDAC in HCT-116 cells xenografted in BALB/c mouse assessed as upregulation of alpha tubulin expression at 20 to 40 mg/kg, ip for 15 days by Western blot analysis; assay type: functional, organism-based; settings: dose 20-40 mg/kg, time 15.0 day, DDE = dose-dependent effect

Chain of Histone deacetylase 1 (Q13547 whole entry): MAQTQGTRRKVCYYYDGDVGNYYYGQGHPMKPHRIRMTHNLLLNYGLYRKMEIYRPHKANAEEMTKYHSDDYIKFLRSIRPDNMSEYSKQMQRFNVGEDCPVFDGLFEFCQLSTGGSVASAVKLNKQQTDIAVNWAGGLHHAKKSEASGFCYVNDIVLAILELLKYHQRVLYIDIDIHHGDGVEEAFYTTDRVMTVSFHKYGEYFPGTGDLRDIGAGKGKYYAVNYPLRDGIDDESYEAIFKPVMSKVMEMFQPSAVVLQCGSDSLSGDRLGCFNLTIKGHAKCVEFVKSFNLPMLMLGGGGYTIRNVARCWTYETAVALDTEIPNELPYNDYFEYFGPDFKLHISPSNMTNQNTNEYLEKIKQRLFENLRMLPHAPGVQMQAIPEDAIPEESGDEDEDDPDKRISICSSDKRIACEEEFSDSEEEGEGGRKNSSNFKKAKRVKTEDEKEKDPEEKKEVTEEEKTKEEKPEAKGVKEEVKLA

O=C(CCCCCCn1c(C(=O)NC2C3CC4CC(C3)CC2C4)cc2ccccc21)NO (stereo unspecified)
IC50 [1]: 2.1 nM | IC50 [2]: 2.43 nM | IC50 [3]: 60800 nM | IC50 [4]: 42600 nM | IC50 [5]: 6800 nM | IC50 [6]: 13800 nM | IC50 [7]: 5740 nM

O=C(NC1C2CC3CC(C2)CC1C3)c1cn(CCCCCCCS)c2ccccc12 (stereo unspecified)
IC50 [1]: 188 nM | IC50 [2]: 232 nM

O=C(CCCCCCC(=O)Nc1ccccc1)NO [VORINOSTAT]
IC50 [6]: 3590 nM | Activity [8]: 3.2% | Activity [9]: 36.2% | Activity [10]: Active | Activity [11]: Active

O=C(CCCCCCn1cc(C(=O)NC23CC4CC(CC(C4)C2)C3)c2ccccc21)NO
IC50 [1]: 1.16 nM | IC50 [2]: 1.92 nM | IC50 [3]: > 100000 nM | IC50 [4]: 20800 nM | IC50 [5]: 14700 nM | IC50 [6]: 45000 nM | IC50 [7]: 1050 nM

O=C(CCCCCCn1c(C(=O)NC2C3CC4CC(C3)CC2C4)cc2ccc(Br)cc21)NO (stereo unspecified)
IC50 [1]: 3.16 nM | IC50 [2]: 4.64 nM | IC50 [3]: 920 nM | IC50 [4]: 1770 nM | IC50 [5]: 180 nM | IC50 [6]: 630 nM | IC50 [7]: 510 nM

O=C(CCCCCCn1c(C(=O)NC2C3CC4CC(C3)CC2C4)nc2ccccc21)NO (stereo unspecified)
IC50 [1]: 1.68 nM | IC50 [2]: 5.25 nM

O=C(CCCCCCn1cc(C(=O)NCc2ccc(Cl)cc2)c2ccccc21)NO
IC50 [1]: 2.31 nM | IC50 [2]: 1.56 nM | IC50 [3]: > 100000 nM | IC50 [4]: > 100000 nM | IC50 [5]: > 100000 nM | IC50 [6]: > 100000 nM | IC50 [7]: 72900 nM

O=C(CCCCCCn1cc(C(=O)NC2CCCCCCC2)c2ccccc21)NO
IC50 [1]: 1.31 nM | IC50 [2]: 1.8 nM | IC50 [3]: > 100000 nM | IC50 [4]: > 100000 nM | IC50 [5]: 67000 nM | IC50 [6]: > 100000 nM | IC50 [7]: 21500 nM

O=C(NO)c1ccc(Cn2cc(C(=O)NC3C4CC5CC(C4)CC3C5)c3ccccc32)cc1 (stereo unspecified)
IC50 [1]: 115 nM | IC50 [2]: 5.29 nM

O=C(CCCCCCn1cc(C(=O)NC2C3CC4CC(C3)CC2C4)c2ccccc21)NO (stereo unspecified)
IC50 [1]: 2.04 nM | IC50 [2]: 1.7 nM

COc1ccc2c(c1)cc(C(=O)NC1C3CC4CC(C3)CC1C4)n2CCCCCCC(=O)NO (stereo unspecified)
IC50 [1]: 1.16 nM | IC50 [2]: 2.3 nM | IC50 [3]: 960 nM | IC50 [4]: 460 nM | IC50 [5]: 40 nM | IC50 [6]: 140 nM | IC50 [7]: 20 nM | Activity [12]: Dde | Activity [13]: Dde | Activity [14]: 2.59% | Activity [8]: 3.34% | Activity [15]: 29.9% | Activity [9]: 48.8% | Activity [16]: Dde | Activity [17]: Active | Activity [18]: Dde | inhibition [19]: Dde | inhibition [20]: Active | inhibition [21]: Active | inhibition at 0.01 µM [22]: 100% | Activity [23]: 44.54% | Activity [24]: 71.79% | Activity [25]: Non-Toxic | Activity [26]: Non-Toxic | Activity [27]: Dde | Activity [28]: Dde

O=C(CCCCCCn1cc(C(=O)NC2CCCCC2)c2ccccc21)NO
IC50 [1]: 1.56 nM | IC50 [2]: 2.32 nM | IC50 [3]: > 100000 nM | IC50 [4]: > 100000 nM | IC50 [5]: 25400 nM | IC50 [6]: 15000 nM | IC50 [7]: 8500 nM
